Where “and” joins values, the source holds several entries; their conditions need not be identical. Identical values can stand only once. Like-named read-outs stand apart in the source and are kept apart here.
Assays:
[1] = Zinc complexation/precipitation of GLP-1 molecules, protein content of supernatant by 280 nm absorbance (Example 1); assay type: physicochemical; settings: 0.1M HEPES pH 7.4, about 0.1 mg/mL, 22° C., about 18 hours
Experimental: Individual aliquots of 5 different GLP-1 molecules were prepared by well-known, solid phase peptide synthesis and were lyophilized in small vials. Portions of 0.1M HEPES (N-[2-hydroxyethyl]piperazine-N′-[2-ethanesulfonic acid]) buffers at pH 7.4 containing various levels of zinc chloride were added to the aliquots to obtain a protein concentration of about 0.1 mg/mL. The samples were mixed and stored at ambient temperature (22° C.) for about 18 hours. The mixtures were then centrifuged (Fisher Model 235C micro-centrifuge) for 5 minutes. The clear supernatants were pipetted from the tubes. The protein content of the supernatants was estimated by measuring their absorbance at 280 nm in a spectrophotometer (Gilford 260). The theoretical absorbance value for a 0.1 mg/mL solution of the GLP-1 molecules at this wavelength in the 1 cm cuvettes is 0.207.

[2] = Zinc precipitation of GLP-1 (7-36)NH2, 280 nm absorbance and zinc by atomic absorption in supernatant and redissolved precipitate (Example 2); assay type: physicochemical
Experimental: 5 mg of GLP-1 (7-36)NH2 was completely dissolved in 2.5 ML of pH 7.4, zinc-free 0.1M HEPES buffer. An additional 2.5 mL of pH 7.4, 0.1M HEPES buffer containing 0.6 mM zinc chloride was quickly added. The approximate molar ratio of zinc to GLP-1 (7-36)NH2 in this sample is 1 to 1. The solution immediately became cloudy and precipitation soon formed. The mixture was stored at ambient temperature (22° C.) for 18 hours.
The precipitate became firmly attached to the bottom of the glass vial. The supernatant was completely decanted by pipette. The precipitate was then completely dissolved in 5.0 mL of 0.1N hydrochloric acid. The absorbance at 280 nm was determined for both the supernatant and redissolved precipitate solutions. The zinc levels in these solutions were quantitated by atomic absorption spectrophotometry.

[3] = intravenous infusion, cited from earlier work
[4] = stored at 4° C.; cited from earlier work
[5] = Zn/GLP-1 molecule molar ratio 0, theoretical absorbance 0.207
[6] = Zn/GLP-1 molecule molar ratio 0.3
[7] = Zn/GLP-1 molecule molar ratio 0.5
[8] = Zn/GLP-1 molecule molar ratio 0.7
[9] = Zn/GLP-1 molecule molar ratio 1.0
[10] = Zn/GLP-1 molecule molar ratio 3.0
[11] = Patients With Maturity Onset Diabetes

280 nm Absorbance of supernatant [1, 5]	280 nm Absorbance of supernatant [1, 6]	280 nm Absorbance of supernatant [1, 7]	280 nm Absorbance of supernatant [1, 8]	280 nm Absorbance of supernatant [1, 9]	280 nm Absorbance of supernatant [1, 10]	Substance	also measured
0.167	0.113	0.082	0.069	0.065	0.055	Gly^8-Gln^21-GLP-1(7-37)OH [Gly^8-Gln^21 GLP-1 (7-37)OH]	–
0.136	0.079	0.070	0.058	0.057	0.044	Gly^8-GLP-1(7-36)NH2 [Gly^8-GLP-1 (7-36)NH2]	–
0.163	0.134	0.098	0.079	0.076	0.055	α-methly-Ala^8-GLP-1(7-36)NH2 [α-methyl-Ala^8-GLP-1 (7-36)NH2]	–

The next lines start with the substance.

Substance	280 nm Absorbance of supernatant [1, 5]	280 nm Absorbance of supernatant [1, 6]	280 nm Absorbance of supernatant [1, 7]	280 nm Absorbance of supernatant [1, 8]	280 nm Absorbance of supernatant [1, 9]	280 nm Absorbance of supernatant [1, 10]	also measured
His^7-Ala-Glu-Gly^10-Thr-Phe-Thr-Ser-Asp15-Val-Ser-Ser-Tyr-Leu^20-Glu-Gly-Gln-Ala-Ala^25-Lys-Glu-Phe-Ile-Ala^30-Trp-Leu-Val-Lys-Gly^35-Arg-NH2 [GLP-1 (7-36)NH2]	0.172	0.099	0.057	0.035	0.039	0.048	Zinc Concentration in Parts per Million ([2]; Redissolved Precipitate (5 ml)): 13.3 Parts per Million; 280 nm Absorbance ([2]; Redissolved Precipitate (5 ml) in 0.1N hydrochloric acid): 1.932; Zinc Concentration in Parts per Million ([2]; Supernatant (5 ml)): 9.02 Parts per Million; 280 nm Absorbance ([2]; Supernatant (5 ml), zinc to peptide about 1 to 1, pH 7.4 HEPES, 22° C., 18 hours): 0.118; zinc concentration of the redissolved precipitate solution ([2]; equivalent of 13.3 parts per million): 203 µM; GLP-1 (7-36)NH2 concentration of the redissolved precipitate ([2]; from 280 nm absorbance 1.932): 0.933 mg/ml and 283 μM; molar ratio of zinc to GLP-1 (7-36)NH2 in the precipitate ([2]; ratio to 1): 0.717; precipitation from the solution when zinc-containing HEPES solution was added ([2]; zinc to peptide about 1 to 1, pH 7.4): most of the GLP-1 (7-36)NH2 precipitated from the solution; Meal glycemia ([3]; Normal Subjects, twice normal serum concentrations): Unchanged; Endogenous insulin secretion in response to a meal ([3]; Normal Subjects): Unchanged; Free fatty acids ([3]; Normal Subjects): Reduced (3); Endogenous insulin secretion in response to a meal [3, 11]: Increased; Fasting glucagon [3, 11]: Reduced; Fasting glycemia [3, 11]: Reduced; Free fatty acids [3, 11]: Reduced (2); Meal glycemia [3, 11]: Reduced; Post-prandial glucagon [3, 11]: Reduced
Val^8-GLP-1(7-37) OH [Val^8-GLP-1 (7-37)OH]	0.187	0.191	0.184	0.180	0.173	0.110	–
GLP-1 (7-37)	–	–	–	–	–	–	Time after sample preparation at which by-products were found [4]: eleven

Source: patent US6703365B2, “Glucagon-like insulinotropic peptides, compositions and methods” (Eli Lilly and Company, priority 1993, dated 2004)
